Reference: publication PMC10309634, “Computer simulation approach to the identification of visfatin-derived angiogenic peptides” (PLOS ONE, 2023)

How the values were obtained:
Type in all cases: cell-based, human
[1] = system: HUVECs; assay: In vitro tube formation assay on Matrigel; details: 4 hours on Matrigel
Description: HUVECs (2×10^4 cells/well) were seeded on a layer of polymerized Matrigel and treated with or without visfatin-derived peptides. The Matrigel culture was incubated at 37°C in the EGM supplemented with EGM-Supplement Mix® containing 1% FBS. After 4 hours, changes in the cell morphology were observed using a phase-contrast microscope and photographed at 40× magnification. Each sample was assayed in duplicate, and independent experiments were repeated three times. Angiogenesis was analyzed with ImageJ software using an angiogenesis analyzer (Bethesda, MD, USA).

[2] = system: HUVECs; assay: In vitro trans-well invasion assay; details: 24 hours, Matrigel-coated trans-well, compared to the control and visfatin-treated groups
Description: The invasion capacity of the cells was determined using a 24-well trans-well system. The upper side of the trans-well membrane was coated with 1 mg/mL Matrigel at 10 μL/well at room temperature for 1 hour. The EGM-2 medium (0.5 ml)was added to the lower part of trans-well chamber. HUVECs (2×10^4 cells) and EGM medium (0.1 ml) were placed on the upper compartment of the trans-well. And then b-FGF (25ng/ml), visfatin (1000 ng/ml), and visfatin-derived peptides (0.5μM and 2.0μM) were added to the upper compartment of the trans-well. Cells were incubated at 37°C and 5% CO2 for 24 hours, fixed with methanol, and stained with hematoxylin and eosin. The cells on the upper surface of the membrane were removed by wiping with a cotton swab. Cell invasion was determined by counting the number of whole cells in a single filter using optical microscopy at 40× magnification. Each sample was assayed in duplicate, and independent experiments were repeated three times.

[3] = system: VEGF-A mRNA expression; assay: RT-qPCR of VEGF-A mRNA in HUVECs; details: 24 hours, RT-qPCR vs GAPDH, compared to the control group
Description: (§1) After treating HUVECs with visfatin-derived peptides for 24 hours, the total RNA was isolated from the cultured HUVECs using the Tri-RNA reagent (Favorgen Biotech Corp., Kaohsiung, Taiwan) according to the manufacturer’s instructions. cDNA was synthesized from 1 μg of total RNA using the iScript^TM cDNA Synthesis Kit (Bio-Rad Laboratories, Inc., Hercules, CA, USA). The mRNA expression levels of VEGF and visfatin were carried out using Applied Biosystems 7500 software (Applied Biosystems Inc., Waltham, MA, USA). Real-time PCR was performed using SYBR Green Q-PCR Master Mix (Samjung Bio Science, Daejeon, South Korea). The reaction conditions were as follows: initial denaturation at 95°C for 5 min, amplification at 95°C for 15 sec, and at 60°C for 1 min. All PCR amplifications were performed for 40 cycles. The specific primers used were as follows: 5’-[…]-3’ (forward) and 5’-GTG ATGGCATGGACTGTGGT-3’ (reverse) for glyceraldehyde-3-phosphate dehydrogenase (GAPDH); 5’-GGAGG GTGACGGGGTGAAGG-3’ (forward) and 5’-[…]-3’ (reverse) for visfatin; and 5’-[…]-3’ (forward) and 5’-[…]-3’ (reverse) for VEGF-A. The relative changes in the gene expression were determined using the 2^-ΔΔCt method and the results were normalized to the expression of GAPDH.

[4] = system: HUVECs; assay: In vitro wound healing migration assay; details: 18 h, scratch wound, compared to the control group
Description: HUVECs were seeded in 24-well plates (SPL) at a density of 2×10^5 cells and incubated in EGM medium supplemented with EGM-Supplement Mix® containing 1% FBS overnight. Cells were scratched using a P200 pipette tip to induce a wound. Subsequently, then b-FGF (25ng/ml), visfatin (1000 ng/ml), and visfatin-derived peptides (0.5μM and 2.0μM) were added and the culture was maintained for 18 hours to allow the cells to migrate. The migration patterns were observed using a phase-contrast microscope and images were captured. The wound diameters were photographed at 16–24 hours. Wound closure was determined using optical microscopy at 40× magnification. Migration was quantified by counting the number of cells that had moved beyond the reference line.

[5] = system: HUVECs; assay: MTT cell cytotoxicity assay; details: MTT, 0.1, 0.5, 1.0 and 2.0 μM, 24 hours, triplicate
Description: HUVECs were grown in EGM-2 supplemented with an EGM-2 Supplement Mix® (PromoCell) containing 2% FBS at a density of 1×10^4 cells in 96-well plates (SPL Inc., Gyeonggido, Korea). After 24 hours, the cells were treated with 1000ng/ml visfatin (Adipogen Life Science) and various concentrations of visfatin-derived peptides (0.1, 0.5, 1.0, and 2.0 μM), and then incubated overnights in an atmosphere of 5% CO2. The 3-(4,5-Dimethylthiazol-2-yl)-2,5-diphenyltetrazolium bromide (MTT) assay reagents (Sigma-Aldrich, St. Louis, MO, USA) were as added directly to each well to a final concentration of 0.5 mg/ml. After 4 hours, the medium was removed, the formazan crystals formed in the cells were dissolved in DMSO, and the absorbance of the formazan solution was measured using a Synergy HTX Multi-Mode Reader (BIO-TEK, Vermont, USA) with a 540 nm filter. Each sample was assayed in triplicate.

[6] = system: visfatin mRNA expression; assay: RT-qPCR of visfatin mRNA in HUVECs; details: 24 hours, RT-qPCR vs GAPDH, compared to the control group
Description: as §1

EYKLHDFGYRGV [Peptide-2, visfatin-derived peptide … (12AA), synthesised by GL Biochem]
number of master junctions ([1]; 0.5 μM, vs control): significantly increased | number of meshes ([1]; 0.5 μM, vs control): significantly increased | increase of cell invasion ([2]; 2.0 μM): more than two-fold | mRNA expression of VEGF-A ([3]; 0.5 μM): significantly increased | mRNA expression of VEGF-A ([3]; 2.0 μM): remarkably increased | increase in cell migration ([4]; 2.0 μM): two-fold increase | cytotoxic effect / viability of HUVECs [5]: no cytotoxic effect | mRNA expression of visfatin ([6]; 0.5 μM): significantly increased | mRNA expression of visfatin ([6]; 2.0 μM): significantly increased

LEYKLHDFGY [Peptide-1, visfatin-derived peptide […]; (10AA), synthesised by GL Biochem]
number of master junctions ([1]; 0.5 μM, vs control): significantly increased | number of meshes ([1]; 0.5 μM, vs control): significantly increased | number of master junctions ([1]; 2.0 μM, vs control): significantly increased | increase of cell invasion ([2]; 0.5 μM): more than two-fold | mRNA expression of VEGF-A ([3]; 0.5 μM): significantly increased | mRNA expression of VEGF-A ([3]; 2.0 μM): did not increase | increase in cell migration ([4]; 0.5 μM): two-fold increase | cytotoxic effect / viability of HUVECs [5]: no cytotoxic effect | mRNA expression of visfatin ([6]; 0.5 μM): significantly increased | mRNA expression of visfatin ([6]; 2.0 μM): did not increase

b-FGF: recombinant human basic fibroblast growth factor, positive control
number of meshes ([1]; positive controls, compared to the control group): not significantly different
